Experiments:
[1] = biological target: T1, specific uterine reception of estradiol (uterus cytosol) (Mus musculus, UniProt P19785); test: hormonal receptor method of Raynaud et al.: displacement of tritiated estradiol in uterus cytosol; format: binding, mice
T1 construct: the uterus was removed and homogenized in a buffered solution; from tissue; host or cells: uterus cytosol (105,000 g supernatant) of immature female mice, 18 to 21 days old
T1 sequence (P19785 1-599): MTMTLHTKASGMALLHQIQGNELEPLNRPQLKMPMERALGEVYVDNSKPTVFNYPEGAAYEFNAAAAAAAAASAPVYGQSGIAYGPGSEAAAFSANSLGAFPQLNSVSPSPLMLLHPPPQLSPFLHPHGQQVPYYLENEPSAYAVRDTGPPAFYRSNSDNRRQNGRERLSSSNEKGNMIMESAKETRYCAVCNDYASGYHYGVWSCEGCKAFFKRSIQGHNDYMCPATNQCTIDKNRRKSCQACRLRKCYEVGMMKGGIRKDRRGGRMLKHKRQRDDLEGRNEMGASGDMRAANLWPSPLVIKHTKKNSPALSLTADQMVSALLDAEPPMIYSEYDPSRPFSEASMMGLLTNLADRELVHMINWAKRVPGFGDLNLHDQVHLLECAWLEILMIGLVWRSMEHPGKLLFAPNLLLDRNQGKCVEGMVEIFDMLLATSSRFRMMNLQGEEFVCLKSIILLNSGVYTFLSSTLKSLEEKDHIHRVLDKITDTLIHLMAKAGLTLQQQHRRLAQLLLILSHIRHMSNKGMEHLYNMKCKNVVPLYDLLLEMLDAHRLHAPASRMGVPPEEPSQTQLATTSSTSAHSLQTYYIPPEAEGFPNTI
Experimental: The estrogenic activity was determined for 11β-vinyl-17α-ethynyl-^1,3,5(10) -estratriene-3,17β-diol was determined by the hormonal receptor method of Raynaud et al. [J. Ster. Biochem., Vol. 6 (1975), p. 615-622]. Immature female mice aged 18 to 21 days old were sacrificed and the uterus was removed and homogenized in a buffered solution of […] of tromethamine, 0.25 M of saccharose and a pH of 7.4 with hydrochloric acid. The homogenate was centrifuged at 105,000 g per hour and the surnageant or cytosol was adjusted to a dilution of 1/25 (weight/volume). […] The radioactivity of the tritiated product R was determined in 2 hours by the technique of adsorption on carbondextran (1.25%-0.625%). The plots were the curves representing the percentage of tritiated product R as a function of the log of the concentration of cold product R or the test product and the I50 straight line parallel to the axis of the abcisses and ordinates [formula] B/T max. is the percentage of tied tritiated product R when the product is not added and B/T min. is the percentage of tied tritiated product R when the maximum amount of cold product R is added.

[2] = tested on: female mice; test: estrogenic (uterotrophic) activity by the method of Rubin, uterus weight; format: in vivo; settings: for Weight of uterus: female mice 19-21 days old, killed on 4th day, control 11.4 ± 0.5
Experimental: The estrogenic activity of the product of Example 1 was also determined by the method of Rubin [Endocrinology, Vol. 49 (1951), p. 429] in which female mice 19-21 days old received once a day for 3 days a subcutaneous injection of the test product. The animals were killed on the 4th day and the uterus was removed, dissected and weighed. The test product was administered in a volume of 0.1 ml of oily solution at doses of 0.01γ, 0.03γ, 0.09γ and 0.27γ.

With `C#C[C@]1(O)CC[C@H]2[C@@H]3CCc4cc(O)ccc4[C@H]3[C@@H](C=C)C[C@@]21C` [Example 1, 11β-vinyl-17α-ethynyl-Δ^1,3,5(10) -estratriene-3,17β-diol] the “affinity for specific uterine reception of estradiol compared with estradiol” value ([1]; conclusion from Table III) was “greater affinity for specific uterine reception of estradiol than estradiol”, the “ARL (relative affinity of the test product)” value ([1]; immature female mouse uterus cytosol, tritiated estradiol, 25° C. for 5 hours, estradiol = 100) was 240 and the uterotrophic activity ([2]; conclusion from Table IV) was “clear uterotrophic activity”. The “Weight of uterus” value ([2]; dose 0.01γ subcutaneous once a day for 3 days) was 25.8 ± 1.7 mg, the “Weight of uterus” value ([2]; dose 0.03γ subcutaneous once a day for 3 days) was 90.1 ± 5.7 mg and the “Weight of uterus” value ([2]; dose 0.09γ subcutaneous once a day for 3 days) was 128.8 ± 12.1 mg. The “Weight of uterus” value ([2]; dose 0.27γ subcutaneous once a day for 3 days) was 107.6 ± 7.4 mg.

Source: patent US4272530A, “Δ^1,3,5(10) -Estratrienes” (Roussel Uclaf, priority 1977, dated 1981)
